Values joined by “and” are separate entries in the source; they are usually repeats but may differ in a detail not shown here. Identical values can stand only once. “Also recorded” adds a separate entry of the source. Like-named read-outs stand apart in the source and are kept apart here.
Columns and labels:
MG63.3 OS cell line [1] = assay: 2D growth / cytotoxicity by MTT, MG63.3; settings: for doses exhibiting cytotoxicity on 2D growth: 72 h
Experimental: The number of viable cells present in 2D culture was determined by MTT as previously reported. Briefly, cells were plated in 96-well plates at 2,000 cells/well and incubated at 37° C. for 24 h. After 24 h, the media was replaced with fresh media containing drugs at the desired concentrations (10 pM-10 μM) and incubated at 37° C. for 72 h. After 72 h, MTT reagent (20 L/well of a 5 mg/mL stock solution in sterile water; Sigma, St. Louis, MO) was added to each well and the plate was incubated at 37° C. for 2 h. DMSO ([…]) was then added to each well to solubilize the formazan crystals.
The resulting absorbance was measured at 490 nm via plate reader (Molecular Devices, San Jose, CA). DMSO (0.1%) was used as vehicle control, while 20 μM rapamycin was used as a positive cell-kill control. The experimental conditions were conducted in triplicate and each experiment was repeated three times. Regression lines and IC50's were calculated using a four-parameter variable slope nonlinear fit in GraphPad Prism.

MG63.3 OS cell line [2] = assay: in vitro 3D BME assay with MG63.3 OS cell line; assay type: cell-based, human; settings: for activity on 3D BME compared with 2D: MG63.3, 3D BME vs 2D MTT 72 h; for 3D activity and selectivity for ME in a screen of 10 HDAC inhibitors: selectivity = ratio of 3D to 2D % inhibition at the same dose, Class I, Class II, pan-HDAC
Description: 3D basement membrane extract (BME) assay was developed at the NCI Barkan (D. Barkan et al. 2008; Dalit Barkan and Green 2011; Hen and Barkan 2020). BME is purified from Engelbreth-Holm-Swarm (EHS) tumor, primarily made up of laminin, collagen IV, entactin, and heparin sulfate proteoglycans (Cultrex Reduced Growth Factor Basement Membrane Extract, PathClear n.d.), which allows it to more accurately reflect the 3D extracellular environment in the body.
Initially >150 selected therapeutic agents were tested on BME based on the likelihood for either a positive effect or a […] negative effect (as negative controls). […] These therapeutic agents were also tested in dose response (as broad as 1 pM-100 μM) for 2D cytotoxicity (MTT) and the IC50 was calculated. Where required, the hits from the initial screen were also further characterized at additional doses <100 nM in order to further determine the relative selectivity compared to the 2D IC50.
The influence of drug exposure on the metastatic phenotype was assessed in an in vitro assay of ME and escape from dormancy using a 3D BME assay as previously reported, which was adapted for use with OS cells.
Cultrex® PathClear, Reduced Growth Factor Basement Membrane Extract (BME—Bio-Techne, Minneapolis, MN) was added ([…]) to a 96-well plate and allowed to gel by incubating at 37° C. for ≥30 min. Cells were harvested, washed with DMEM (no glucose, no FBS, Gibco, Grand Island, NY) and centrifuged at 1500 g×5 mins. The media was aspirated and the remaining cell pellet flicked for about 10 s to ensure disaggregation.
Cells were diluted in assay media containing 2% BME, resuspended vigorously and 150 μL of the cell suspension was added on top of the gelled 3D BME layer. […] Cell numbers were determined in control vehicle (cells in media+0.1% DMSO), or treated wells and were measured on the indicated days by addition of 20 μL/well of MTS reagent (Cell Titer 96 Aqueous One, Promega, Madison, WI), followed by incubation at 37° C. for 2 h and absorbance measurements at 490 nm via plate reader (Molecular Devices, San Jose CA).
All conditions were conducted in quadruplicate and each experiment was carried out at least 3 separate times. All comparisons were made between treatment and vehicle control at concordant time points. Statistical analyses and non-linear regressions were derived using GraphPad Prism statistical software.

[3] = MG63.3 on 3D BME, vs vehicle control, replicates=4, read-out: lowest dose leading to appreciable inhibition of 3D growth
[4] = Homo sapiens, MG-63.3, MG63.3 on 3D BME, vs vehicle control, replicates=4, read-out: lowest dose leading to appreciable inhibition of 3D growth
[5] = domatinostat 100-200 nM, MG63.3
[6] = MG63.3 on 3D BME, vs vehicle control, replicates=4

O=C(/C=C/c1cccnc1)NCCCCC1CCN(C(=O)c2ccccc2)CC1 [(E)-daporinad]
doses exhibiting cytotoxicity on 2D growth (MG63.3 OS cell line [1]; human): > 0.1 nM
activity on 3D BME compared with 2D (MG63.3 OS cell line [2]): much stronger activity on 3D BME at significantly lower doses
minimal effective concentration (MG63.3 OS cell line [2]; [3]): 0.0001 µM

COc1c(C)cnc(Cn2cnc3c(Cl)nc(N)nc32)c1C [BIIB021]
doses exhibiting cytotoxicity on 2D growth (MG63.3 OS cell line [1]; human): > 10 nM
minimal effective concentration (MG63.3 OS cell line [2]; [4]): 0.008 µM
activity on 3D BME compared with 2D (MG63.3 OS cell line [2]): much stronger activity on 3D BME at significantly lower doses

O=C(NOC[C@H](O)CO)c1ccc(F)c(F)c1Nc1ccc(I)cc1F [PD0325901]
inhibition in 2D at this dose (MG63.3 OS cell line [1]; PD0325901 1-128 nM, MG63.3): no statistically significant inhibition
doses exhibiting cytotoxicity on 2D growth (MG63.3 OS cell line [1]; human): ≥ 100 nM
minimal effective concentration (MG63.3 OS cell line [2]; Homo sapiens, MG-63.3, read-out: lowest dose leading to appreciable inhibition of 3D growth): 0.001 µM
activity on 3D BME compared with 2D (MG63.3 OS cell line [2]): much stronger activity on 3D BME at similar doses; also recorded: more active in 3D than in 2D
growth inhibition in the 3D BME assay (MG63.3 OS cell line [2]; PD0325901 1-128 nM, MG63.3): 50-75%

COc1cc(Nc2ncc3c(n2)-c2ccc(Cl)cc2C(c2c(F)cccc2OC)=NC3)ccc1C(=O)O [alisertib]
doses exhibiting cytotoxicity on 2D growth (MG63.3 OS cell line [1]; human): > 25 nM
minimal effective concentration (MG63.3 OS cell line [2]; [4]): 0.0125 µM
activity on 3D BME compared with 2D (MG63.3 OS cell line [2]): much stronger activity on 3D BME at significantly lower doses

CO[C@H]1/C=C\C=C(/C)C(=O)NC2=CC(=O)C(NCCN(C)C)=C(C[C@@H](C)C[C@H](OC)[C@H](O)[C@@H](C)/C=C(\C)[C@@H]1OC(N)=O)C2=O [alvespimycin]
doses exhibiting cytotoxicity on 2D growth (MG63.3 OS cell line [1]; MG63.3, MTT, replicates=3): > 25 nM
minimal effective concentration (MG63.3 OS cell line [2]; [4]): 0.0125 µM
activity on 3D BME compared with 2D (MG63.3 OS cell line [2]): much stronger activity on 3D BME at significantly lower doses

O=C(/C=C/c1cccc(S(=O)(=O)Nc2ccccc2)c1)NO [belinostat]
doses exhibiting cytotoxicity on 2D growth (MG63.3 OS cell line [1]; human): ≥ 80 nM
minimal effective concentration (MG63.3 OS cell line [2]; [4]): 0.2 µM
3D activity and selectivity for ME in a screen of 10 HDAC inhibitors (MG63.3 OS cell line [2]; MG63.3): 3D activity and selectivity for ME

CO[C@@H](C(=O)N1Cc2n[nH]c(NC(=O)c3ccc(N4CCN(C)CC4)cc3)c2C1)c1ccccc1 [danusertib]
doses exhibiting cytotoxicity on 2D growth (MG63.3 OS cell line [1]; human): > 100 nM
minimal effective concentration (MG63.3 OS cell line [2]; [4]): 0.1 µM
activity on 3D BME compared with 2D (MG63.3 OS cell line [2]): much stronger activity on 3D BME at significantly lower doses

Cn1cc(-c2ccc(S(=O)(=O)n3ccc(/C=C/C(=O)Nc4ccccc4N)c3)cc2)cn1 [domatinostat]
inhibition in 2D at these doses (MG63.3 OS cell line [1]; [5]): no statistically significant inhibition
doses exhibiting cytotoxicity on 2D growth (MG63.3 OS cell line [1]; human): ≥ 200 nM
earlier (2 days on, 4 days off) vs later (2 days off, 4 days on) treatment (MG63.3 OS cell line [2]; FIG. 68, rapamycin 2-16 nM experiment, MG63.3 3D BME): slightly more inhibition than later treatment
minimal effective concentration (MG63.3 OS cell line [2]; [4]): 0.1 µM
activity on 3D BME compared with 2D (MG63.3 OS cell line [2]): much stronger activity on 3D BME at similar doses; also recorded: more active in 3D than in 2D
3D activity and selectivity for ME in a screen of 10 HDAC inhibitors (MG63.3 OS cell line [2]; MG63.3): highest 3D activity and selectivity for ME
efficacy of domatinostat alone treated for 1 day (MG63.3 OS cell line [2]; domatinostat 100-200 nM, 1 day on, 5 days off): little to no efficacy
growth inhibition in the 3D BME assay (MG63.3 OS cell line [2]; [5]): 20-50%
inhibition of 3D growth relative to vehicle, two schedules (MG63.3 OS cell line [2]; domatinostat 200-800 nM, Days 3-6 (2 days off, 4 days on) or Days 1-2 (2 days on, 4 days off), P<0.005): significantly inhibition relative to vehicle for both treatment schedules
earlier (2 days on, 4 days off) vs later (2 days off, 4 days on) treatment (MG63.3 OS cell line [2]; domatinostat 200-800 nM, MG63.3 3D BME): slightly more inhibition than later treatment
re-treatment on Day 3 vs treated once, inhibition of 3D growth (MG63.3 OS cell line [2]; rapamycin 1 nM, domatinostat 100 & 150 nM, combination, P<0.01 for all except 100 nM domatinostat alone): significantly increased inhibition relative to the conditions only treated with drug once

CO[C@H]1C[C@@H]2CC[C@@H](C)[C@@](O)(O2)C(=O)C(=O)N2CCCC[C@H]2C(=O)O[C@H]([C@H](C)C[C@@H]2CC[C@@H](OCCO)[C@H](OC)C2)CC(=O)[C@H](C)/C=C(\C)[C@@H](O)[C@@H](OC)C(=O)[C@H](C)C[C@H](C)/C=C/C=C/C=C/1C [everolimus]
cytotoxicity on 2D growth (MG63.3 OS cell line [1]): cytotoxicity across all doses tested
minimal effective concentration (MG63.3 OS cell line [2]; [4]): 0.01 µM
activity on 3D BME compared with 2D (MG63.3 OS cell line [2]): much stronger activity on 3D BME at similar doses

COc1ccc(-c2nc(N3CCOCC3)c3sc(CN(C)c4ncc(C(=O)NO)cn4)cc3n2)cn1 [fimepinostat]
doses exhibiting cytotoxicity on 2D growth (MG63.3 OS cell line [1]; human): ≥ 1 nM
3D activity and selectivity for ME in a screen of 10 HDAC inhibitors (MG63.3 OS cell line [2]; MG63.3): 3D activity and selectivity for ME
lowest dose leading to complete inhibition of 3D growth (MG63.3 OS cell line [2]; [6]): 5 nM

CCN(CC)Cc1ccc2cc(COC(=O)Nc3ccc(C(=O)NO)cc3)ccc2c1 [givinostat]
doses exhibiting cytotoxicity on 2D growth (MG63.3 OS cell line [1]; human): ≥ 600 nM
minimal effective concentration (MG63.3 OS cell line [2]; [4]): 0.3 µM
activity on 3D BME compared with 2D (MG63.3 OS cell line [2]): more active in 3D than in 2D
3D activity and selectivity for ME in a screen of 10 HDAC inhibitors (MG63.3 OS cell line [2]; MG63.3): highest 3D activity and selectivity for ME
3D growth inhibition and selectivity for ME at selected dose (MG63.3 OS cell line [2]; givinostat 400 nM, quisinostat 10 nM, MG63.3 3D BME): significant 3D growth inhibition and selectivity for ME

O=C(CC1NCCCC1O)Cn1cnc2cc(Br)c(Cl)cc2c1=O (stereo not shown) [halofuginone]
doses exhibiting cytotoxicity on 2D growth (MG63.3 OS cell line [1]; human): ≥ 12.5 nM
lowest dose leading to >25% inhibition of 3D growth (MG63.3 OS cell line [2]; [6]): 3 nM

CC(C)[C@]12O[C@H]1[C@@H]1O[C@]13[C@]1(O[C@H]1C[C@H]1C4=C(CC[C@@]13C)C(=O)OC4)[C@@H]2OCOP(=O)(O)O [minnelide]
doses exhibiting cytotoxicity on 2D growth (MG63.3 OS cell line [1]; MG63.3, MTT, replicates=3): ≥ 0.781 nM
lowest dose leading to complete inhibition of 3D growth (MG63.3 OS cell line [2]; [6]): 4 nM

CO[C@@]12[C@H](COC(N)=O)C3=C(C(=O)C(C)=C(N)C3=O)N1C[C@@H]1N[C@@H]12 [mitomycin C]
IC50 (MG63.3 OS cell line [1]; read-out: 2D IC50, MG63.3, MTT 72 h): 1000 nM and ~1000 nM
IC50 (MG63.3 OS cell line [2]; MG63.3): 50 nM
activity on 3D BME compared with 2D (MG63.3 OS cell line [2]): much stronger activity on 3D BME at significantly lower doses; also recorded: more active in 3D than in 2D
minimal effective concentration (MG63.3 OS cell line [2]; [3]): 0.0125 µM

CC1(C)CCC(c2ccc(Cl)cc2)=C(CN2CCN(c3ccc(C(=O)NS(=O)(=O)c4ccc(N[C@H](CCN5CCOCC5)CSc5ccccc5)c(S(=O)(=O)C(F)(F)F)c4)cc3)CC2)C1 [navitoclax]
doses exhibiting cytotoxicity on 2D growth (MG63.3 OS cell line [1]; human): ≥ 1000 nM
inhibition in 2D (MG63.3 OS cell line [1]; navitoclax 500-2000 nM, MG63.3): 0-25%
minimal effective concentration (MG63.3 OS cell line [2]; [4]): 0.5 µM
activity on 3D BME compared with 2D (MG63.3 OS cell line [2]): much stronger activity on 3D BME at similar doses; also recorded: more active in 3D than in 2D
growth inhibition in the 3D BME assay (MG63.3 OS cell line [2]; navitoclax 500-2000 nM, MG63.3): 50-60%

Cc1[nH]c2ccccc2c1CCNCc1ccc(/C=C/C(=O)NO)cc1 [panobinostat]
doses exhibiting cytotoxicity on 2D growth (MG63.3 OS cell line [1]; human): ≥ 80 nM
minimal effective concentration (MG63.3 OS cell line [2]; [4]): 0.04 µM

NS(=O)(=O)OC[C@@H]1C[C@@H](n2ccc3c(N[C@H]4CCc5ccccc54)ncnc32)C[C@@H]1O [pevonedistat]
inhibition at 0.025 µM (MG63.3 OS cell line [1]; Homo sapiens, MG-63.3, read-out: inhibition in 2D): 20%
doses exhibiting cytotoxicity on 2D growth (MG63.3 OS cell line [1]; human): > 10 nM
inhibition at 0.025 µM (MG63.3 OS cell line [2]; Homo sapiens, MG-63.3, pevonedistat 25 nM, MG63.3): 47%
activity on 3D BME compared with 2D (MG63.3 OS cell line [2]): much stronger activity on 3D BME at significantly lower doses; also recorded: more active in 3D than in 2D

From US20250161287A1, “METHODS, COMPOSITIONS, AND COMBINATIONS FOR PREVENTING OR TREATING CANCER RECURRENCE” (VUJA DE SCIENCES, INC., priority 2022, published 2025)
